Like-named read-outs stand apart in the source and are kept apart here.
Assays:
Type in all cases: in vivo, Danio rerio
[1] = Twenty-four-hour acute toxicity test (lethality and abnormalities, 4 to 5 dpf); design: Embryos with spasms: dose or concentration left out as unconfirmed; settings: zebrafish (Danio rerio), in vivo, other: immersion in test solution; 24 h exposure, 4 to 5 dpf, TAPS buffer pH 8.6; read-out: LC50 (CI95)
Method: (§1) Experiments were conducted to assess lethality after 24 h exposure and quantify drug-induced effects on heart rate after 2 h exposure. Experiments were performed on day 4 of zebrafish development (4 dpf). On the day of the experiment, eleutheroembryos (hereafter embryos) were distributed into a 6-well plate (Thermo-Fisher Scientific, Madrid, Spain) by adding 12 embryos into each well with 5 mL of test solution. Embryos were exposed by immersion at 20 min intervals so that they could be mounted individually by ensuring equal exposure times in all groups. Each drug was tested at different concentrations (ranging from 1 to 1000 µM) in parallel with a control group (Goods buffer TAPS alone). The concentration range used was based on previous experiments with MDMA [58].
(§2) Embryos at 4 dpf were distributed to 6-well plates, and 10 embryos were placed into each well with 5 mL of drug test solution. Plates were incubated at 26 ± 1 °C under a 14:10 light:dark cycle for 24 h. Following 24 h exposure, endpoints used for assessing lethality (coagulation or lack of heartbeat) and morphological/functional abnormalities were recorded for each treatment group. Each drug was tested at different concentrations, and at least three independent experiments were performed.
(§3) Concentration–response curves were derived from 2 h exposures and the 24 h acute toxicity test as effective concentrations 50 (EC50) and lethal concentrations 50 (LC50), respectively. Concentration–response curves were obtained with a sigmoidal concentration–response equation (Hill equation) using the package drc in R software (v.R-3.6.1).

zebrafish embryos [2] = assay: as above; design: Embryos with spasms: dose or concentration left out as unconfirmed; settings: 24 h exposure between 4 and 5 dpf; for Drug-induced abnormalities: all tested concentrations
Method: as §1, §2, §3

zebrafish embryos [3] = assay: Chamber-specific heart rate (atrium, ventricle) after 2 h exposure, video recording; settings: for EC50: Danio rerio, 4 dpf; for Lowest concentration inducing ventricular bradycardia (LOAEC): significant decrease in ventricular heart rate
Method: as §1
(§4) To avoid the movement of zebrafish embryos during recording, embryos were anesthetized by adding tricaine to exposure medium (0.08 mg/mL) and mounted in 3% methylcellulose (without tricaine) on double depression slides (Paul Marienfeld GmbH & Co. KG, Lauda-Königshofen, Germany) after drug exposure time. […] The slide was then transferred to an inverted light microscope (Nikon eclipse TS100, at 400×/N.A. 0.55, Nikon Instruments Inc., Amsterdam, The Netherlands) fitted with a high-speed video camera (Exilim, CASIO, Shibuya City, Japan). Sequential images of the heart (240 frames per second (fps)) were obtained with the embryo positioned on its side from the lateral position and with a duration of 10 s. Embryos were recorded one at a time, and all experiments were consistently conducted at the same time of day, controlling room temperature variation throughout video recordings.
To quantify atrial and ventricular heart rates in zebrafish, video recordings were analyzed with ImageJ v.1.53t. A plot of dynamic pixels was obtained by selecting an area of the heart ventricle or atrium with a high deviation of pixel intensity by means of the z-projection function (see Figure S4 for representative selection of heart ventricle and atrium area). The frequency as frames/beat was obtained by analyzing the waveform of dynamic pixels by the Fast Fourier Transform algorithm (FFT) using the “spectrum” function in R. Then, the resulting periodogram provides frequency information in cycles per frame, so to calculate the heart rate frequency (beats/min, bpm), the frequency values were multiplied by the frame rate (240 fps) to convert cycles per frame to cycles per second (Hz) and then multiplied by 60 to convert from Hz to bpm.
as §3
(§5) Statistical analyses were conducted using GraphPad Prism 9 software. For all endpoints reported as means of mean values, data were considered to have a normal distribution according to the central limit theorem (by which means of random samples from any distribution will themselves have a normal distribution). Statistical comparison was performed by two-way ANOVA, followed by Tukey’s test, which was conducted to assess the effect of concentration and chamber (atrium–ventricle) on heart frequency or AI. Fisher’s Exact test was used for the statistical analysis of the proportion of embryos showing AV block and ventricular fibrillation. Students t-test was used to analyze the ventricular beat rate of zebrafish embryos exposed to the Cm.

zebrafish embryos [4] = assay: AV block 2:1 and ventricular fibrillation after 2 h exposure
Method: as §1, §4, §5

zebrafish embryos [5] = assay: Arrhythmicity index (AI, heart rate variability) after 2 h exposure; settings: 500 µM
Method: as §1
To avoid the movement of zebrafish embryos during recording, embryos were anesthetized by adding tricaine to exposure medium (0.08 mg/mL) and mounted in 3% methylcellulose (without tricaine) on double depression slides (Paul Marienfeld GmbH & Co. KG, Lauda-Königshofen, Germany) after drug exposure time. […] Embryos were recorded one at a time, and all experiments were consistently conducted at the same time of day, controlling room temperature variation throughout video recordings.
Heartbeat variability was determined by analysis of the interbeat intervals (heart period) (see Figure 7), similar to the analysis described in [61]. […]

zebrafish embryos [6] = assay: Tachycardic effects: beat rate after 10 min exposure at 10 µM, and ventricular beat rate at Cm after 2 h
[7] = atrial bradycardia, read-out: EC50 (CI95) ATRIUM heart rate
[8] = ventricular bradycardia, read-out: EC50 (CI95) VENTRICLE heart rate

| Compound | LC50 at 24 h [1] [µM] | Drug-induced abnormalities (zebrafish embryos [2]) | EC50 (zebrafish embryos [3]; [7]) [µM] | EC50 (zebrafish embryos [3]; [8]) [µM] | Lowest concentration inducing ventricular bradycardia (LOAEC) (zebrafish embryos [3]) [µM] | Lowest concentration provoking AV block (zebrafish embryos [4]) [µM] | Embryos with ventricular fibrillation (zebrafish embryos [4]; 500 µM) | Ventricle heartbeat (zebrafish embryos [5]) | Beat rate after shorter exposure time (zebrafish embryos [6]) | Embryos with spasms (zebrafish embryos [2]) [%] | Fold more potent in inducing bradycardia in the ventricle than in the atria (EC50) (zebrafish embryos [3]) [fold] | Embryos with ventricular fibrillation (AV ratio > 2.5) (zebrafish embryos [4]; 50 µM) |
| --- | --- | --- | --- | --- | --- | --- | --- | --- | --- | --- | --- | --- |
| COC(=O)[C@H]1[C@@H](OC(=O)c2ccccc2)C[C@@H]2CC[C@H]1N2C [Cocaine, cocaine] | 173 | No abnormalities observed | > 500 | 97.2 | 50 | 50 | all embryos | no ventricle heartbeat | significantly increased beat rates | – | – | – |
| CCCC(C(=O)c1ccc2c(c1)OCO2)N1CCCC1 (stereo not shown) [MDPV, 3,4-methylenedioxy-pyrovalerone] | 135 | – | 110 | 32.7 | 20 | 20 | – | – | – | 21 | 3.4 | more than half of the embryos tested |
| CNC(C)Cc1ccc2c(c1)OCO2 (stereo not shown) [MDMA, 3,4-methylenedioxy-methamphetamine] | 180 | – | 500 | 418 | 250 | 500 | – | – | – | – | – | – |
| CNC(C)C(=O)c1ccc2c(c1)OCO2 (stereo not shown) [Methylone, methylone] | 127 | No abnormalities observed | > 1000 | 522 | 250 | 250 | – | – | – | – | – | – |
| CNC(C)C(=O)c1ccc(C)cc1 (stereo not shown) [Mephedrone, mephedrone] | 147 | No abnormalities observed | 601 | 403 | 250 | 500 | – | – | – | – | – | – |

— article PMC10531093, “First-Generation Synthetic Cathinones Produce Arrhythmia in Zebrafish Eleutheroembryos: A New Approach Methodology for New Psychoactive Substances Cardiotoxicity Evaluation” (International Journal of Molecular Sciences, 2023)
